Experimental data published in patent US7601686B2, “Hepatitis C virus inhibitors” (Bristol-Myers Squibb Company, priority 2005, dated 2009).
Like-named read-outs stand apart in the source and are kept apart here.

Tests used:
[1] = molecular target: T1, HCV NS3/4A protease complex, BMS strain (UniProt P27958, species not given/STRAIN_BMS); test: FRET peptide assay to monitor HCV NS3/4A proteolytic activity (BMS strain); format: biochemical, Hepatitis C virus (genotype 1a); conditions: NS3/4A BMS strain, enzyme assay
T1 construct: DNA encoding the recombinant HCV NS3/4A protease complex (amino acids 1027 to 1711) for these strains [H77 and J4L6S]; fused on or other part: For the H77 and J4L6S constructs, a three-lysine solubilising tail at the NS4A C-terminus and a Ni-NTA-purifiable tag from pET21b
Method in brief: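 Recombinant NS3/4A complexes (aa 1027–1711) with C-terminal three-lysine tail, C1711G and C1454S, expressed in E. coli BL21(DE3) (0.5 mM IPTG, 22 h, 20°C) for H77 (1a) and J4L6S (1b); BMS strain is genotype 1a patient isolate. Purified by Ni-NTA and Superdex-S200; proteolysis monitored by FRET peptide cleavage.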

[2] = molecular target: T2, HCV NS3/4A protease complex, H77 strain (Hepatitis C virus genotype 1a, UniProt P27958, C1454S/C1711G); test: FRET peptide assay to monitor HCV NS3/4A proteolytic activity (H77 strain); format: biochemical
T2 construct: recombinant HCV NS3/4A protease complex (amino acids 1027 to 1711) for these strains; inferred from pET21b vector and Ni-NTA purification; made in house; host or cells: Escherichia coli BL21 (DE3), pET21b
Excerpt: (§1) Generation of Recombinant HCV NS3/4A Protease Complex
(§2) HCV NS3 protease complexes, derived from the BMS strain, H77 strain or J4L6S strain, were generated, as described below. These purified recombinant proteins were generated for use in a homogeneous assay (see below) to provide an indication of how effective compounds of the present disclosure would be in inhibiting HCV NS3 proteolytic activity.
(§3) Serum from an HCV-infected patient was obtained from Dr. T. Wright, San Francisco Hospital. An engineered full-length cDNA (compliment deoxyribonucleic acid) template of the HCV genome (BMS strain) was constructed from DNA fragments obtained by reverse transcription-PCR (RT-PCR) of serum RNA (ribonucleic acid) and using primers selected on the basis of homology between other genotype 1a strains. From the determination of the entire genome sequence, a genotype 1a was assigned to the HCV isolate according to the classification of Simmonds et al. (See P Simmonds, K A Rose, S Graham, S W Chan, F McOmish, B C Dow, E A Follett, P L Yap and H Marsden, J. Clin. Microbiol., 31(6), 1493-1503 (1993)). […]

[3] = molecular target: T3, HCV NS3/4A protease complex, J4L6S strain (Hepatitis C virus genotype 1b, UniProt O92972, C1454S/C1711G); test: FRET peptide assay to monitor HCV NS3/4A proteolytic activity (J4L6S strain); format: biochemical
T3 construct: recombinant HCV NS3/4A protease complex (amino acids 1027 to 1711) for these strains; inferred from pET21b vector and Ni-NTA purification; made in house; host or cells: Escherichia coli BL21 (DE3), pET21b
Excerpt: as §1, §2, §3

[4] = test system: human pancreatic chymotrypsin; test: Specificity assay, chymotrypsin; format: biochemical; conditions: 2 h enzyme-inhibitor pre-incubation; read-out: Chymotrypsin activity in the specificity assays
Description: (§4) The specificities of compounds of the present disclosure were determined against a variety of serine proteases: human neutrophil elastase (HNE), porcine pancreatic elastase (PPE) and human pancreatic chymotrypsin and one cysteine protease: human liver cathepsin B. In all cases a 96-well plate format protocol using colorimetric p-nitroaniline (pNA) substrate specific for each enzyme was used as described previously (PCT Patent Application No. WO 00/09543) with some modifications to the serine protease assays. All enzymes were purchased from Sigma while the substrates were from Bachem.
(§5) Each assay included a 2 h enzyme-inhibitor pre-incubation at room temperature followed by addition of substrate and hydrolysis to ˜30% conversion as measured on a Spectramax Pro microplate reader. Compound concentrations varied from 100 to 0.4 μM depending on their potency.
(§6) The final conditions for each assay were the same as those described in WO 03/099274, page 623.
(§7) The percentage of inhibition was calculated using the formula: [1−((UVinh−UVblank)/(UVctl−UVblank))]×100
(§8) A non-linear curve fit was applied to the inhibition-concentration data, and the 50% effective concentration (IC50) was calculated by the use of Excel XLfit software.

human liver cathepsin B = molecular target: T4, human liver cathepsin B (Homo sapiens, UniProt P07858); test: Specificity assay, cathepsin B; format: biochemical; conditions: 2 h enzyme-inhibitor pre-incubation; read-out: Cathepsin B activity in the specificity assays
T4 construct: purchased Sigma; host or cells: human liver
Description: as §4, §5, §6, §7, §8

T1 sequence (P27958 1027-1657, stated change not applied, one chain of several): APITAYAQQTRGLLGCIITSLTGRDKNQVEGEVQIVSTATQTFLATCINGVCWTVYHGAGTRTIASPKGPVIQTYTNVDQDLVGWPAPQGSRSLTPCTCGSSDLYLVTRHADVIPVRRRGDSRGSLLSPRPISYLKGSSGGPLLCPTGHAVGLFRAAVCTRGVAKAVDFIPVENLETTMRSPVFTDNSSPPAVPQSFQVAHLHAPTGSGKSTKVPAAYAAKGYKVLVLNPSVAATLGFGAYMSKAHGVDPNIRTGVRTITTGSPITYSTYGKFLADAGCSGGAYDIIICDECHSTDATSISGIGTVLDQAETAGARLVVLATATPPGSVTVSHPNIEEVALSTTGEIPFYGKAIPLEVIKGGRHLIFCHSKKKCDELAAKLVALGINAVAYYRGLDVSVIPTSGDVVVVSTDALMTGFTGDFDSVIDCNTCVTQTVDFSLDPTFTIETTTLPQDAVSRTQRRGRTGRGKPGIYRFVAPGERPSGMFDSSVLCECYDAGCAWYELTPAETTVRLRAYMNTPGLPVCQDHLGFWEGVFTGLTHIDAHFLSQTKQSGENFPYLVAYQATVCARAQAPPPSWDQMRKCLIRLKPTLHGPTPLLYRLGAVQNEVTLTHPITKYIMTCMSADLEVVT
T3 sequence (O92972 1027-1711 C1454S/C1711G, one chain of several): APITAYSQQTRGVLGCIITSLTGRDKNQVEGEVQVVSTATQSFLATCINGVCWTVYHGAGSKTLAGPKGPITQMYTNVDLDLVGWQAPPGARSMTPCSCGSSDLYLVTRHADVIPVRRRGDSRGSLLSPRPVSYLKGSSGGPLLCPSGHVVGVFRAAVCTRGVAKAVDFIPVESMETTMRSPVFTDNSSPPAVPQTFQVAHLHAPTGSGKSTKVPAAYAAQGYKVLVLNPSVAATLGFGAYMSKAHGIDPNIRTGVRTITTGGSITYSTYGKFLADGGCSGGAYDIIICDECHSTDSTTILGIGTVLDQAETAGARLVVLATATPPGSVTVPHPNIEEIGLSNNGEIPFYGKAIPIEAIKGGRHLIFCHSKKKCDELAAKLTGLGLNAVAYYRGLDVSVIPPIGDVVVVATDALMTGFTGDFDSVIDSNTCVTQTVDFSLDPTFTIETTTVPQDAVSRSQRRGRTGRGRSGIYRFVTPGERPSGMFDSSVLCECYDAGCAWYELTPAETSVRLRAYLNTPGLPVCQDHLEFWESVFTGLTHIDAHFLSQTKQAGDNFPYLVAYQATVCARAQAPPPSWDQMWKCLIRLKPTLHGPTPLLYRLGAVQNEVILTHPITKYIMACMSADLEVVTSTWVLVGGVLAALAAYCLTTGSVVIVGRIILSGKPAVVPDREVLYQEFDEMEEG
T2 sequence (P27958 1027-1711 C1454S/C1711G, one chain of several): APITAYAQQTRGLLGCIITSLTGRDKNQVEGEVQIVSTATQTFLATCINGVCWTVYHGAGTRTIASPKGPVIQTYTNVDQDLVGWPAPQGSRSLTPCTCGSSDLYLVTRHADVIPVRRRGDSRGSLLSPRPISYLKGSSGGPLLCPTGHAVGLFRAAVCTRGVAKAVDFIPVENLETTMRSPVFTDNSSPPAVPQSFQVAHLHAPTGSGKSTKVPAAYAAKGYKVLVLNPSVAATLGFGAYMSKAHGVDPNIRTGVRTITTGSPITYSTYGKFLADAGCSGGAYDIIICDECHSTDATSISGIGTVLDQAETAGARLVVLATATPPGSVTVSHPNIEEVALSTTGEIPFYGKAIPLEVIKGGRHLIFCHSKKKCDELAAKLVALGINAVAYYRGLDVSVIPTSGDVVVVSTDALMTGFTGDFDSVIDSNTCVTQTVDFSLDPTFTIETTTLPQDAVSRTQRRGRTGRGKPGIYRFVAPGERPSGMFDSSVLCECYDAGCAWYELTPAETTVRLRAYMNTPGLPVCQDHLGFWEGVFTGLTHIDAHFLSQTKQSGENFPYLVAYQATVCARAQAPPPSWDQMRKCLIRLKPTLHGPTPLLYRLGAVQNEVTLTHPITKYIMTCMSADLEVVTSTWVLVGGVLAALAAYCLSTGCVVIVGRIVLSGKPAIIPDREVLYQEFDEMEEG

C=CC1CC1(NC(=O)[C@@H]1C[C@@H](NC(=O)c2cc(-c3ccccc3)nc3ccccc23)CN1C(=O)[C@@H](NC(=O)CC1CC1)C(C)(C)C)C(=O)NS(=O)(=O)C1CC1 (stereo partly drawn) [Compound 9]
IC50 [1]: 47 nM
IC50 ([1]; read-out: IC 50 Range): < 150 nM
IC50 [2]: 41 nM
IC50 [3]: 30 nM
IC50 [4]: 65000 nM
IC50 (human liver cathepsin B): > 100000 nM
